ChEMBL document CHEMBL1144172, “Discovery of novel series of benzoic acid derivatives containing biphenyl ether moiety as potent and selective human beta(3)-adrenergic receptor agonists: Part IV” (Bioorg Med Chem Lett, 2008)

Assays:
[1] = molecular target: Beta-3 adrenergic receptor (Homo sapiens, UniProt P13945); assay: Agonist activity at human cloned adrenergic beta3 receptor expressed in CHO cells assessed as cAMP accumulation; assay type: functional, cell-based
CHO = assay: Selectivity for human cloned adrenergic beta-1 receptor over human cloned adrenergic beta3 receptor expressed in CHO cells; assay type: cell-based
[2] = molecular target: Beta-1 adrenergic receptor (Homo sapiens, UniProt P08588)
Description: Agonist activity at human cloned adrenergic beta-1 receptor expressed in CHO cells assessed as cAMP accumulation

[3] = molecular target: Beta-3 adrenergic receptor (Canis lupus familiaris, UniProt O02662); assay: Agonist activity at dog cloned adrenergic beta3 receptor expressed in CHO cells assessed as cAMP accumulation; assay type: functional, cell-based
[4] = molecular target: Beta-3 adrenergic receptor (Canis lupus familiaris) (UniProt O02662); assay: Agonist activity at dog cloned adrenergic beta3 receptor assessed as inhibition of carbachol-induced increase in intravesical pressure at 10 ug/kg, iv; assay type: functional
[5] = molecular target: Beta-3 adrenergic receptor (Canis lupus familiaris) (UniProt O02662); assay: Agonist activity at dog cloned adrenergic beta3 receptor assessed as inhibition of carbachol-induced increase in intravesical pressure at 32 ug/kg, iv; assay type: functional

Chain of Beta-3 adrenergic receptor (Homo sapiens, UniProt P13945) (P13945 whole entry): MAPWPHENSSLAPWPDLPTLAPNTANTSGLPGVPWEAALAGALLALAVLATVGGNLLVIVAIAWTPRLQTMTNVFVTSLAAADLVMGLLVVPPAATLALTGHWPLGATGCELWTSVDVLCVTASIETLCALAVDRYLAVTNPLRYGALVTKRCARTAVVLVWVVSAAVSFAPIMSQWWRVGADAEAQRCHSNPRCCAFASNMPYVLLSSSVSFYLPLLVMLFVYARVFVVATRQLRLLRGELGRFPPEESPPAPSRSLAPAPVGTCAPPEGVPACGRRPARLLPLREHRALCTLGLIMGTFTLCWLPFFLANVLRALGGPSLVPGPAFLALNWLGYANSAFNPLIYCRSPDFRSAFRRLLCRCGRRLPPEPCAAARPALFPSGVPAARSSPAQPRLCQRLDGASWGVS
Chain of Beta-3 adrenergic receptor (Canis lupus familiaris, UniProt O02662) (O02662 whole entry): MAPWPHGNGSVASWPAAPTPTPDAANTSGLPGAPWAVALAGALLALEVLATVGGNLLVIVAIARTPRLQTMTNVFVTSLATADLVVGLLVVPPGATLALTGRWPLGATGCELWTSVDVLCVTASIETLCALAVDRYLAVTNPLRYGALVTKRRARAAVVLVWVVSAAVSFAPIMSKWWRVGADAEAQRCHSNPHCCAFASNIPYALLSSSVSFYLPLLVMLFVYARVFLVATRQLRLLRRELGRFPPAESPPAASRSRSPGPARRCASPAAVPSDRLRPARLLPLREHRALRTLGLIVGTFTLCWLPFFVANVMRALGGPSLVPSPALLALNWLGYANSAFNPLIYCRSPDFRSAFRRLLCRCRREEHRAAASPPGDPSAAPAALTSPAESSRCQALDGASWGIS
Chain of Beta-3 adrenergic receptor (Canis lupus familiaris) (O02662 whole entry): as above
Chain of Beta-1 adrenergic receptor (P08588 whole entry): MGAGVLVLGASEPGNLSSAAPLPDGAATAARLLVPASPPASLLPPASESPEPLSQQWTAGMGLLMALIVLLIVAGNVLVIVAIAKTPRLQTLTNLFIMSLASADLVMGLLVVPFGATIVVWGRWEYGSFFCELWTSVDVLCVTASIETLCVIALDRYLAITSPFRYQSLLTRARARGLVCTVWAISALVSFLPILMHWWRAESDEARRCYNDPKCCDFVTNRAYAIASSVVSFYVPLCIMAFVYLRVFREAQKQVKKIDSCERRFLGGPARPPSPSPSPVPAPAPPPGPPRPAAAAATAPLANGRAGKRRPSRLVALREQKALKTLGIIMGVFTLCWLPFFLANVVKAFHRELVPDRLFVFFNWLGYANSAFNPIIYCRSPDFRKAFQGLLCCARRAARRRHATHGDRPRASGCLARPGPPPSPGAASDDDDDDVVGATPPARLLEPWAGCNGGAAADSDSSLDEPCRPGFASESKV

In the case of `CC(=O)Nc1ccc(Oc2cccc(CCNC[C@H](O)c3cccnc3)c2)cc1C(=O)O`, the EC50 [1] is reported as 0.012 µM, the Ratio EC50 (CHO) is reported as 16 and the EC50 [2] is reported as 0.19 µM.

`O=C(O)c1cc(Oc2cccc(CCNC[C@H](O)c3cccc(Cl)c3)c2)ccc1Cl` was tested, and the EC50 [1] was 0.0095 µM, the Ratio EC50 (CHO) was 6.7 and the EC50 [2] was 0.064 µM.

With `COc1ccc(Oc2cccc(CCNC[C@H](O)c3cccnc3)c2)cc1C(=O)O` the EC50 [1] was 0.056 µM, the Ratio EC50 (CHO) was 12 and the EC50 [2] was 0.69 µM.

Work on `O=C(O)c1cc(NC(=O)c2ccccc2)cc(Oc2cccc(CCNC[C@H](O)c3cccc(Cl)c3)c2)c1` yielded an EC50 [1] of 0.021 µM, a Ratio EC50 (CHO) of 9 and an EC50 [2] of 0.19 µM.

Compound `O=C(O)c1cccc(Oc2cccc(CCNC[C@H](O)c3cccc(Cl)c3)c2)c1` has an EC50 [1] of 0.014 µM, a Ratio EC50 (CHO) of over 7.1 and an EC50 [2] of over 0.1 µM.

`O=C(O)c1cc(Oc2cccc(CCNC[C@H](O)c3cccnc3)c2)ccc1F` gave an EC50 [1] of 0.031 µM, a Ratio EC50 (CHO) of 27 and an EC50 [2] of 0.84 µM.

Compound `CC(C)Oc1ccc(Oc2cccc(CCNC[C@H](O)c3cccc(Cl)c3)c2)cc1C(=O)O` has an EC50 [1] of 0.0034 µM, a Ratio EC50 (CHO) of 238 and an EC50 [3] of 0.0032 µM. It also gave an inhibition [4] of 43% and an EC50 [2] of 0.81 µM.

Compound `CC(=O)Nc1cc(Oc2cccc(CCNC[C@H](O)c3cccc(Cl)c3)c2)cc(C(=O)O)c1` has an EC50 [1] of 0.0065 µM, a Ratio EC50 (CHO) of 37 and an EC50 [2] of 0.24 µM.

With `C[C@H](Cc1cccc(Oc2cccc(C(=O)O)c2)c1)NC[C@H](O)c1cccc(Cl)c1` the EC50 [1] was 0.0019 µM, the Ratio EC50 (CHO) was 15 and the EC50 [2] was 0.028 µM.

Compound `O=C(O)c1ccc(Oc2cccc(CCNC[C@H](O)c3cccc(Cl)c3)c2)cc1` has an EC50 [1] of 0.06 µM and an EC50 [2] of over 0.1 µM.

Work on `O=C(O)c1cc(Oc2cccc(CCNC[C@H](O)c3cccc(Cl)c3)c2)ccc1N1CCCC1=O` yielded an EC50 [1] of 0.0066 µM, a Ratio EC50 (CHO) of over 152 and an EC50 [3] of 0.0019 µM. It also gave an inhibition [5] of 84% and an EC50 [2] of over 1 µM.

`O=C(Nc1ccc(Oc2cccc(CCNC[C@H](O)c3cccc(Cl)c3)c2)cc1C(=O)O)c1ccccc1` was tested, and the EC50 [1] was 0.0086 µM, the Ratio EC50 (CHO) was 15 and the EC50 [2] was 0.13 µM.

`CC(C)(C)C(=O)Nc1ccc(Oc2cccc(CCNC[C@H](O)c3cccc(Cl)c3)c2)cc1C(=O)O` gave an EC50 [1] of 0.0046 µM, a Ratio EC50 (CHO) of 135 and an EC50 [3] of 0.0016 µM. It also gave an inhibition [5] of 30% and an EC50 [2] of 0.62 µM.

Work on `COc1ccc(Oc2cccc(CCNC[C@H](O)c3cccc(Cl)c3)c2)cc1C(=O)O` yielded an EC50 [1] of 0.011 µM, a Ratio EC50 (CHO) of 46 and an EC50 [2] of 0.51 µM.

Compound `CC(=O)Nc1ccc(Oc2cccc(CCNC[C@H](O)c3cccc(Cl)c3)c2)cc1C(=O)O` has an EC50 [1] of 0.0072 µM, a Ratio EC50 (CHO) of 53 and an EC50 [2] of 0.38 µM.

`O=C(O)c1cc(Oc2cccc(CCNC[C@H](O)c3cccc(Cl)c3)c2)ccc1F` gave an EC50 [1] of 0.0094 µM, a Ratio EC50 (CHO) of 15 and an EC50 [2] of 0.14 µM.

`Cc1ccc(Oc2cccc(CCNC[C@H](O)c3cccc(Cl)c3)c2)cc1C(=O)O` showed an EC50 [1] of 0.013 µM, a Ratio EC50 (CHO) of 42 and an EC50 [2] of 0.55 µM.
